Data taken from patent US20100316746A1, “Pesticidal Compound Mixtures” (Bayer CropScience AG, priority 2007, published 2010).

Key:
Myzus persicae = test: Myzus persicae-Test (sprayed cabbage leaves); type: in vivo; conditions: 144 h, after 6 d, spray on cabbage leaves
Protocol: (§1) Solvent: 7 parts by weight of dimethylformamide Emulsifier: 2 parts by weight of alkylaryl polyglycolether
(§2) To produce a suitable preparation of active compound, 1 part by weight of active compound is mixed with the stated amount of solvent and emulsifier, and the concentrate is diluted with emulsifier-containing water to the desired concentration.
Cabbage leaves (Brassica oleracea) which are heavily infested by the green peach aphid (Myzus persicae) are treated by being sprayed with the preparation of the active compound at the desired concentration.
After the specified period of time, the mortality in % is determined. 100% means that all the aphids have been killed; 0% means that none of the aphids have been killed.

Phaedon cochleariae = test: Phaedon cochleariae-Test (larvae, sprayed cabbage leaves); type: in vivo; conditions: 144 h, after 6 d, spray on cabbage leaves
Protocol: as §1, §2
Cabbage leaves (Brassica oleracea) are treated by being sprayed with the preparation of the active compound in the desired concentration and are infested with larvae of the mustard beetle (Phaedon cochleariae) as long as the leaves are still moist.
After the specified period of time, the mortality in % is determined. 100% means that all the beetle larvae have been killed; 0% means that none of the beetle larvae have been killed.

Structure (SMILES): CN/C(=N\[N+](=O)[O-])NCc1cnc(Cl)s1 [Clothianidin, clothianidin]
- mortality at 0.8 ppm (Myzus persicae; 0.8 ppm): 65%
- mortality at 4 ppm (Phaedon cochleariae; 4 ppm): 55%

Structure (SMILES): COCC(=O)N(c1c(C)cccc1C)C(C)C(=O)OC (centres unmarked) [Metalaxyl, metalaxyl]
- mortality at 200 ppm (Myzus persicae): 0%

Structure (SMILES): CC(C)C1CCC(Cc2ccc(Cl)cc2)C1(O)Cn1cncn1 (centres unmarked) [Ipconazole, ipconazole]
- mortality at 200 ppm (Myzus persicae): 10%
- mortality at 200 ppm (Phaedon cochleariae; 200 ppm): 5%
